The text below walks through data of ChEMBL document CHEMBL4371054, “Dual inhibition of Kif15 by oxindole and quinazolinedione chemical probes” (Bioorg Med Chem Lett, 2019).

Test [1] has as its target T1, Kinesin-like protein KIF15 (Homo sapiens) (UniProt Q9NS87).
T1 sequence (whole entry): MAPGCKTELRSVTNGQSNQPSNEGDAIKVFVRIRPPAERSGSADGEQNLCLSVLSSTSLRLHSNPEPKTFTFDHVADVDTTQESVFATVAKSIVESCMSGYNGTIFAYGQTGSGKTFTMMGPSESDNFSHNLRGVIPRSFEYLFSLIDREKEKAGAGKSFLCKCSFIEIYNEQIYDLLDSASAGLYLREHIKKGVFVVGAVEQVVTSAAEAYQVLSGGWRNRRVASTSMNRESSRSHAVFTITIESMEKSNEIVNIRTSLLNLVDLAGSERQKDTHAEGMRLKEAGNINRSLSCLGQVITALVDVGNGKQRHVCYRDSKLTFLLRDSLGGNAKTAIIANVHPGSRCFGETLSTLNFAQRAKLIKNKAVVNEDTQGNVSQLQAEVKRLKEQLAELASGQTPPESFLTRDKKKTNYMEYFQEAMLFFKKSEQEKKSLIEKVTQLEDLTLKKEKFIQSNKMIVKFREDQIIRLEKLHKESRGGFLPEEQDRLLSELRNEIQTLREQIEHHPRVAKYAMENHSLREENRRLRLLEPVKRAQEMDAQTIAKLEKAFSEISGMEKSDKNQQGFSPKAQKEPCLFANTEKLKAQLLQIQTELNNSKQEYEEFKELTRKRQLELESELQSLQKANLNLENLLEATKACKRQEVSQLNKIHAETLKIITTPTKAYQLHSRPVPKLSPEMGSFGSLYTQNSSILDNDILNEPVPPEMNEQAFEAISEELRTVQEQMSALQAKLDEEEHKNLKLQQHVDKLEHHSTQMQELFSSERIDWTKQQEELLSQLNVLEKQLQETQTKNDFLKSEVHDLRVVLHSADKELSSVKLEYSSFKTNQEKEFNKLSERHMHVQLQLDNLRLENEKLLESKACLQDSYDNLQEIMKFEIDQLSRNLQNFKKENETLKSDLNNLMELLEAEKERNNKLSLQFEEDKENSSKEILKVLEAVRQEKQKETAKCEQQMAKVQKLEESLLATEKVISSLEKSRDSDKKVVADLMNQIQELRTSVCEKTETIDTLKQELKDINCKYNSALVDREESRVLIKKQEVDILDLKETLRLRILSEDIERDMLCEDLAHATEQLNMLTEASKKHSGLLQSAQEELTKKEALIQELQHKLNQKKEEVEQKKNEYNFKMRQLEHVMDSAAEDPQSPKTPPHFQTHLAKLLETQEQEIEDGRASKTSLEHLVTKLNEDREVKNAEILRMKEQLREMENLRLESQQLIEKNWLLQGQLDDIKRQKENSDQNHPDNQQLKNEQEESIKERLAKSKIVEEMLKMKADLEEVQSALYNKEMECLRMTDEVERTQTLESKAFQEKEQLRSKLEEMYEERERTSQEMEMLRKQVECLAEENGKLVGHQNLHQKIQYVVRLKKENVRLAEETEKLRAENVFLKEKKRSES
The experiment in a line: Inhibition of Kif15 in K51-resistant human KIRC1 cells assessed as increase in cells with monopolar spindles after 24 hrs by Hoechst 33342 staining based immunofluorescence microscopic analysis.

Test [2] has as its target T1, Kinesin-like protein KIF15 (Homo sapiens). The test is described as follows: Inhibition of recombinant His6-tagged Kif15 (N700 residues) (unknown origin) expressed in HeLa cells assessed as reduction in Alexa-594 labelled microtubule gliding at 750 nM measured every 2 secs for 20 secs by epifluorescence microscopic analysis (reference value: 1%). In kind it is cell-based.

Test [3] has the same target. The test is described as follows: ATP non-competitive inhibition of recombinant His6-tagged Kif15 ATPase activity (N700 residues) (unknown origin) expressed in HeLa cells at 0.5 to 2 uM using varying levels of microtubule as substrate preincubated for 30 mins followed by ATP addition by double reciprocal Lineweaver-Burk plot analysis. In kind it is cell-based.
For test [4], the target named is T2, Kinesin-like protein KIF15 (Homo sapiens, UniProt Q9NS87).
T2 sequence (Q9NS87 whole entry): T1 sequence (whole entry)
The test is described as follows: Inhibition of recombinant His6-tagged Kif15 ATPase activity (N420 residues) (unknown origin) expressed in HeLa cells using microtubule as substrate preincubated for 15 mins followed by ATP addition and measured after 20 mins by ADP-Glo luminescence assay. Background: ADP-Glo first removes unused ATP, then detects ADP through luciferase.

Test [5] addresses T1, Kinesin-like protein KIF15 (Homo sapiens). The experiment in a line: Inhibition of recombinant His6-tagged Kif15 ATPase activity (N420 residues) (unknown origin) expressed in HeLa cells at 10 uM using microtubule as substrate preincubated for 15 mins followed by ATP addition and measured after 20 mins by ADP-Glo luminescence assay relative to control.
Test [6] shares this target. The test is described as follows: Inhibition of recombinant His6-tagged Kif15 (N700 residues) (unknown origin) expressed in HeLa cells assessed as reduction in Alexa-594 labelled microtubule gliding at 30 uM measured every 2 secs for 20 secs by epifluorescence microscopic analysis relative to control. Type of test: cell-based.
The target is the same in test [7]. The experiment in a line: ATP non-competitive inhibition of recombinant His6-tagged Kif15 ATPase activity (N700 residues) (unknown origin) expressed in HeLa cells at 0.5 to 2 uM using microtubule as substrate preincubated for 30 mins followed by varying levels of ATP addition by double reciprocal Lineweaver-Burk plot analysis.

Active and inactive are the calls of the source. The rule behind the calls is not given here.

What is called inhibition is the relative decrease from the control value, in per cent. The IC50 is the concentration that inhibits the measured activity by half. Regarding `O=C1Nc2ccc(C(=O)c3ccco3)cc2/C1=C/c1cc(Cl)c(O)c(Cl)c1`, the inhibition entry in test [1] is “Dose-dependent effect”; in test [2], 49%; in test [5], 76%; in test [6], 98.9%. In addition, the inhibition entry in test [3] and in test [7] was “Active” in each case. Further, the IC50 in test [4] worked out at 0.82 µM.
